Experimental data from patent US7102056B1, “Compositions and methods for plant transformation and regeneration” (The Regents of the University of California, priority 1997, dated 2006).

How the values were obtained:
Galena immature embryos = assay: Callus-induction frequency on callus-induction media (CIM); type: cell-based, barley (Hordeum vulgare L.); details: Galena half embryos on CIM; 2 to 3 weeks after initial culturing; means ± SD of three replicates
Description: (§1) Immature embryos (about 1.5-2.5 mm in size) were taken from spikes approximately three months in age that were surface-sterilized in 20% (v/v) bleach (5.25% sodium hypochlorite) for 7 min. washed 5 min with sterile water three times, bisected longitudinally, and placed on CIM. Ten half-embryos were tested on CIM supplemented with each of the fourteen phytohormone combinations; each treatment had three replicates. (Whole embryos can also be used.) Callus-induction frequency was measured by counting numbers of half embryos undergoing callus induction under a light microscope 2 to 3 weeks after initial culturing.
(§2) Immature zygotic embryos about 1.5 to 2.5 mm in size were dissected and isolated intact under a stereo dissecting microscope from seeds that were surface-sterilized for 10 min in 20% (v/v) bleach (5.25% sodium hypochlorite) followed by three washes in sterile water. The embryos were placed scutellum-side down on CIM.
(§3) Six different CIMs were used to test callus-induction frequencies and callus quality. The CIMs had, respectively, different concentrations of: 2,4-D (1.0 and 2.5 mg/L), BAP (0.01, 0.1 and 0.5 mg/L), and cupric sulfate (CuSO4; 0.1 and 5.0 μM) as shown in Table 7.
(§4) The initial callus-induction frequency was determined using CIM of different compositions. Ten immature embryos from the barley genotypes Golden Promise and Galena were transferred to each CIM. Each CIM contained the following levels of hormones and copper: D, 2.5 mg/L 2,4-D and 0.1 μM CuSO4; DC, 2.5 mg/L 2,4-D and 5.0 μM CuSO4; DB, 2.5 mg/L 2,4-D, 0.1 mg/L BAP, 0.1 μM CuSO4; DBC1, 2.5 mg/L 2,4-D, 0.01 mg/L BAP and 5.0 μM CuSO4; DBC2, 2.5 mg/L 2,4-D, 0.1 mg/L BAP and 5.0 μM CuSO4; DBC3, 1.0 mg/L 2,4-D, 0.5 mg/L BAP and 5.0 μM CuSO4. Callus quality was assessed microscopically and scored on a scale with ++++ designating highest quality and +designating lowest quality. Values were measured three weeks after initial callus induction and represent means of three replicates for each treatment. […] Tissue quality was poor on CIM containing BAP three weeks after induction but improved after two to three transfers on this medium. Only a fraction of scutellar tissues on Galena immature embryos formed callus, while most of the scutellar surface on Golden Promise immature embryos formed high-quality callus.

[1] = test system: Golden Promise immature embryos; assay: as above; type: cell-based, barley (Hordeum vulgare L.); details: Golden Promise half embryos on CIM; 2 to 3 weeks after initial culturing; means ± SD of three replicates
Description: as §1, §2, §3, §4

[2] = test system: nontransgenic callus tissues of Golden Promise; assay: Regeneration via an intermediate-incubation step, nontransgenic callus; type: cell-based, barley; details: two-month-old callus of Golden Promise maintained on CIM containing the auxin alone
Description: Callus induction was performed as described above using CIM with 2.5 mg/L of 2,4-D or dicamba (no cytokinin). After incubation for three weeks at 24±1° C. in the dark, callus was cut into small pieces (about 3 to 4 mm), then maintained on the same medium with subculturing at three-week intervals.
Ten pieces of two-month-old nontransgenic calli grown on CIM supplemented with either 2,4-D or dicamba in the dark were transferred to RM either directly or following incubation on an IIM.
Two different IIM were used, DBC2 and DBC3. DBC2 medium is CIM containing 2.5 mg/L 2,4-D, 0.1 mg/L BAP, and 5.0 μM copper (cupric sulfate). DBC3 medium is CIM containing 1.0 mg/L 2,4-D, 0.5 mg/L BAP, and 5.0 μM copper. After growing calli on these media for 3-4 weeks under dim light conditions (20 to 30 μE; 16 h light/8 h dark), the numbers of calli producing green sectors or green regenerative structures were counted. Green sectors and small green regenerative structures were then transferred to fresh RM and grown under higher light intensity (45-55 μE). After 3-4 weeks, the numbers of green shoots per callus piece were counted. […]

[3] = test system: Golden Promise immature embryos; assay: Callus quality on twelve callus-induction media (auxin types, copper); type: cell-based, barley
Description: (§5) To examine the effects of different types of auxins and concentrations of copper on callus quality and regenerability in barley, twelve different media were tested, using methods essentially as described in Example 2 above.

calli of Golden Promise = assay: Regenerability of calli from twelve callus-induction media (auxin types, copper); type: cell-based, barley
Description: as §5

[4] = test system: green tissue of Golden Promise, Galena and Harrington; assay: Selection and regeneration of bombarded green tissues with selective agents; type: cell-based; details: bombarded barley green tissues under selection
Description: The green regenerative tissues generated and maintained on one or two of these media, DBC2 (comprising 2.5 mg/L 2,4-D, 0.1 mg/L BAP and 5.0 μM CuSO4, Cho et al., 1998) or DBC3 (comprising 1.0 mg/L 2,4-D, 0.5 mg/L BAP and 5.0 μM CuSO4, Cho et al., 1998), were used directly as transformation targets. For bombardment, 3 to 4 mm pieces of green tissue of Golden Promise, Galena and Harrington, removed 3 to 4 months after initiation of the original culture, were osmotically treated on DBC2 or DBC3 medium and bombarded the same day with three different selection constructs, ubi-bar/ubi-uidA, ubi-nptII/ubi-uidA and act-hpt/ubi-uidA. […] Sixteen to 18 hr post-bombardment, green tissues were transferred without osmoticum or selective agent to dim light on DBC2 or DBC3 medium for Golden Promise and Harrington or DBC3 for Galena. Selection with all agents started […] post-bombardment to allow for proliferation of transformed cells in the absence of the cell death resulting from wounding or selection. At that time, tissue was broken into pieces (3-5 mm) and transferred to either DBC2 or DBC3 medium (depending on morphology) with 3 mg/L bialaphos (bar), 20-25 mg/L hygromycin B (hpt) or 30 mg/L G418 (nptII), depending on the construct used. Starting with the third round of selection, levels of selective agent were increased to 45 mg/L bialaphos, 25 mg/L hygromycin B or 40 mg/L G418. […]

Structure (SMILES): O=C(O)COc1ccc(Cl)cc1Cl [2,4-D, 2,4-dichlorophenoxyacetic acid]
- Callus Induction Frequency (%) GAL (Galena immature embryos): ~100%
- Callus Induction Frequency (%) GP [1]: ~100%
- green shoots per callus piece [2]: 0.35

Structure (SMILES): O=C(O)Cc1c[nH]c2ccccc12 [IAA]
- callus quality [3]: poorer callus quality than the other auxins
- induction of calli which regenerated green plants (calli of Golden Promise): Neither IAA nor NAA was optimal

Structure (SMILES): O=C(O)Cc1cccc2ccccc12 [NAA]
- induction of calli which regenerated green plants (calli of Golden Promise): Neither IAA nor NAA was optimal

Structure (SMILES): C[C@H](NC(=O)[C@H](C)NC(=O)[C@@H](N)CCP(C)(=O)O)C(=O)O [bialaphos]
- albino plants during regeneration of selected tissues [4]: no albino plants were observed

Structure (SMILES): COc1c(Cl)ccc(Cl)c1C(=O)O [dicamba]
- Callus Induction Frequency (%) GAL (Galena immature embryos): ~100%
- Callus Induction Frequency (%) GP [1]: ~100%
- green shoots per callus piece [2]: 1.15

Structure (SMILES): CN[C@H]1C[C@@H](N)[C@H](O)[C@@H](O[C@@H]2O[C@H](CO)[C@H](O)[C@@H]3OC4(O[C@H]23)O[C@H]([C@@H](N)CO)[C@H](O)[C@H](O)[C@H]4O)[C@@H]1O (some centres unmarked) [hygromycin B]
- albino plants during regeneration of selected tissues [4]: frequently albino plants were observed
